According to ChEMBL document CHEMBL3639120, “Pyridone and aza-pyridone compounds and methods of use” (2013):

Biological target: Tyrosine-protein kinase BTK (Homo sapiens, UniProt Q06187)
Experiment: Biochemical Assay: A generalized procedure for a standard biochemical Btk Kinase Assay that can be used to test Formula I compounds. Alternatively, the Lanthascreen assay can be used to evaluate Btk activity through quantification of its phosphorylated peptide product. The FRET (Fluorescence Resonance Energy Transfer) that occurs between the fluorescein on the peptide product and the terbium on …

Sequence of Tyrosine-protein kinase BTK (Q06187 whole entry): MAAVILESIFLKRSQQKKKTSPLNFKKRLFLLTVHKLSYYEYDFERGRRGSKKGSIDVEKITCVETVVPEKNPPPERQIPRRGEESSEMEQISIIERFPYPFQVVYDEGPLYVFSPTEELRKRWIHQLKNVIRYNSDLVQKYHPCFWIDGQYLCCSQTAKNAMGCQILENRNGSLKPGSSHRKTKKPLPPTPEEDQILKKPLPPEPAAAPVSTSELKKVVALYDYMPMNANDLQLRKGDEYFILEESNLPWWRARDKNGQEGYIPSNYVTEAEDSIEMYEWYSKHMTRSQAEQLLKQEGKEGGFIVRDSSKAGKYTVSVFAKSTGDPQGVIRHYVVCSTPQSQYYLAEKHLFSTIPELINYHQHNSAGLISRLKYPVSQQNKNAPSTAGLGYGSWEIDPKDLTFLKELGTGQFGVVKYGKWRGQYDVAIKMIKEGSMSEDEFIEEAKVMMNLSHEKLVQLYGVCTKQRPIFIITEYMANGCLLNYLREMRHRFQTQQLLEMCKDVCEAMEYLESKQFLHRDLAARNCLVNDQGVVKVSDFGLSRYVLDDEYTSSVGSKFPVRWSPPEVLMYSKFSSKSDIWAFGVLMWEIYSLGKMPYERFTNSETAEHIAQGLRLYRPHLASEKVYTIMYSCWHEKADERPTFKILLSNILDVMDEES

With Cn1cc(-c2cccc(N3CCn4c(cc5c4CC(C)(C)C5)C3=O)c2CO)cc(Nc2ccc(N3CCN(C4COC4)CC3)cn2)c1=O the IC50 was 5.2 nM.
